Measurements: patent US10479795B2 (Incyte Corporation, priority 2016, dated 2019)
Structures can show the parent of a compound that is named as a salt.

How the values were obtained:
[1] = target: PI3Kγ (p110γ) Recombinant Human Protein (Homo sapiens (Human), UniProt P48736); assay: PI3K-γ Scintillation Proximity Assay; assay type: biochemical; details: read-out: PI3Kγ IC50
Method in brief: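 Radiometric SPA readout: […] bound to WGA beads after overnight shaking, IC50 derived from % activity of DMSO control. Reaction used human p110γ, 2 μM ATP, 20 μM PIP2, pH 6.7 MOPS buffer with MgCl2, DTT, CHAPS, 2% DMSO, room temperature.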

[2] = target: PI3Kδ (p110δ/p85α) Recombinant Human Protein (Homo sapiens (Human), UniProt O00329); assay: PI3Kδ Scintillation Proximity Assay; assay type: biochemical
Source text: Example C. PI3Kδ Scintillation Proximity Assay
[γ-^33P]ATP (10 mCi/mL) and Wheat Germ Agglutinin (WGA) YSi SPA Scintillation Beads was purchased from Perkin-Elmer (Waltham, Mass.). Lipid kinase substrate, D-myo-Phosphatidylinositol 4,5-bisphosphate (PtdIns(4,5)P2)D (+)-sn-1,2-di-O-octanoylglyceryl, 3-O-phospho linked (PIP2), CAS 204858-53-7, was purchased from Echelon Biosciences (Salt Lake City, Utah). PI3Kδ (p110δ/p85α) Recombinant Human Protein was purchased from Eurofins (St Charles, Mo.). ATP, MgCl2, DTT, EDTA, MOPS and CHAPS were purchased from Sigma-Aldrich (St. Louis, Mo.).
The kinase reaction was conducted in polystyrene 384-well Greiner Bio-one white plate from Thermo Fisher Scientific in a final volume of 25 μL. Inhibitors were first diluted serially in DMSO and added to the plate wells before the addition of other reaction components. The final concentration of DMSO in the assay was 2%. The PI3Kδ assay was carried out at room temperature in 20 mM MOPS, pH 6.7, 10 mM MgCl2, 5 mM DTT and CHAPS 0.03%. Reactions were initiated by the addition of ATP, the final reaction mixture consisted of 20 μM PIP2, 2 μM ATP, 0.5 μCi [γ-^33P] ATP, 3.4 nM PI3Kδ. Reactions were incubated for 120 min and terminated by the addition of 40 μL SPA beads suspended in quench buffer: 163 mM potassium phosphate pH 7.8, 20% glycerol, 25 mM EDTA. The final concentration of SPA beads is 1.0 mg/mL. After the plate sealing, plates were shaken overnight at room temperature and centrifuged at 1500 rpm for 10 min, the radioactivity of the product was determined by scintillation counting on Topcount (Perkin-Elmer). IC50 determination was performed by fitting the curve of percent of the solvent control activity versus the log of the inhibitor concentration using the GraphPad Prism 6.0 software.

Chain of PI3Kγ (p110γ) Recombinant Human Protein (P48736 whole entry): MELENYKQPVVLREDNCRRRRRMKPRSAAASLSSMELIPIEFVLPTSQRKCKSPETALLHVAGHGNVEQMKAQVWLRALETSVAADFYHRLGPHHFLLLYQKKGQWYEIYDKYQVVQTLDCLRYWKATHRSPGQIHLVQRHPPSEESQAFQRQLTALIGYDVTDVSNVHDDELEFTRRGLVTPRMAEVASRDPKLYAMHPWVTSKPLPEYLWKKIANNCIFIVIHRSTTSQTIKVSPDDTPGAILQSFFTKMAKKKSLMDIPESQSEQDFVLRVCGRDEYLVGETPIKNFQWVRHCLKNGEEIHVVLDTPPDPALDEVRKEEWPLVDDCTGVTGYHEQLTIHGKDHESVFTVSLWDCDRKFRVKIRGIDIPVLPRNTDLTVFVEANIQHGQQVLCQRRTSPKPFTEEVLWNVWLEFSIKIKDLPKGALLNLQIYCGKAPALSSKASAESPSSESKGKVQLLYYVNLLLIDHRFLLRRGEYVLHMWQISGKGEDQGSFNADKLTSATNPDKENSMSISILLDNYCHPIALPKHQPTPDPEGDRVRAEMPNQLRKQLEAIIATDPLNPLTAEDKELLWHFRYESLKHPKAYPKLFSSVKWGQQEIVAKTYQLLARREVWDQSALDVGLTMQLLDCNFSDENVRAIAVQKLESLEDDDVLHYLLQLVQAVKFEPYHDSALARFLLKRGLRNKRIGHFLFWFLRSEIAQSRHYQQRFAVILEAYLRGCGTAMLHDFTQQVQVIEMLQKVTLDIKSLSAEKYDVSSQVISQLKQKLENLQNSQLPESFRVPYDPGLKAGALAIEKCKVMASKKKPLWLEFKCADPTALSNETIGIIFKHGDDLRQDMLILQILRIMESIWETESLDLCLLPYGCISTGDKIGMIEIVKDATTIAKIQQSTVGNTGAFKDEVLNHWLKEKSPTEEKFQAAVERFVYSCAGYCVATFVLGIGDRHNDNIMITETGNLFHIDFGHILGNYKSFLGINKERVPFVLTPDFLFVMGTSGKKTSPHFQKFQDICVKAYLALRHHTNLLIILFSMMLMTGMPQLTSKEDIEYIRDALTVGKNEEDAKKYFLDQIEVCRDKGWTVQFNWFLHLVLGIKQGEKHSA
Chain of PI3Kδ (p110δ/p85α) Recombinant Human Protein (O00329 whole entry): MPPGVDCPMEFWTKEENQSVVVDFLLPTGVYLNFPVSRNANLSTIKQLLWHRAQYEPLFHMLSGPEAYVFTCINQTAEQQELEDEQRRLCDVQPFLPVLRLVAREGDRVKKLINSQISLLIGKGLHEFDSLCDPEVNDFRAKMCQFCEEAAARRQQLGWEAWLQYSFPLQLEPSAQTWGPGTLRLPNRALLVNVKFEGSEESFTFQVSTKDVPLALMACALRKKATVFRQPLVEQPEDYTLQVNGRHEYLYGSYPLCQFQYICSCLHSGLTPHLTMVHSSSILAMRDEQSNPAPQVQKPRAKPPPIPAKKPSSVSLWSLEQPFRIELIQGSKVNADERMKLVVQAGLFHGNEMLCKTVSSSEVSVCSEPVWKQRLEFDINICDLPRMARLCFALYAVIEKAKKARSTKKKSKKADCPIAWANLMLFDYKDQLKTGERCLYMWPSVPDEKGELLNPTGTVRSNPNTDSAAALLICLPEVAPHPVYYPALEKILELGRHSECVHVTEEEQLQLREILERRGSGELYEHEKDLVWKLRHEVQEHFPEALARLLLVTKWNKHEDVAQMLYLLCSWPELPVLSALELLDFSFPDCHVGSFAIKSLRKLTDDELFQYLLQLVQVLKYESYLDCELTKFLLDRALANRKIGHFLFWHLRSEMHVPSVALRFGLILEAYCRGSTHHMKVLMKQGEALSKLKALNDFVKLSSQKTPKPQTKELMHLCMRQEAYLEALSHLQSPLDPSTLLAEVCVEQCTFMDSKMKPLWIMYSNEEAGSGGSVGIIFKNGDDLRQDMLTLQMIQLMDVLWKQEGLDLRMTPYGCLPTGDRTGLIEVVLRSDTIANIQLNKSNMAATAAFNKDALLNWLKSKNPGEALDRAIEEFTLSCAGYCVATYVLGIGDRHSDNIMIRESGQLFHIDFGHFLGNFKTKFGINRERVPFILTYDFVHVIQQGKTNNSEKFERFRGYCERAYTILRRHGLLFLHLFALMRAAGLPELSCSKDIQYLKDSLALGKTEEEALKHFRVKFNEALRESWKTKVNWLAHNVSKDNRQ
Chain of PI3Kδ (p110δ/p85α) Recombinant Human Protein (P27986 whole entry partner): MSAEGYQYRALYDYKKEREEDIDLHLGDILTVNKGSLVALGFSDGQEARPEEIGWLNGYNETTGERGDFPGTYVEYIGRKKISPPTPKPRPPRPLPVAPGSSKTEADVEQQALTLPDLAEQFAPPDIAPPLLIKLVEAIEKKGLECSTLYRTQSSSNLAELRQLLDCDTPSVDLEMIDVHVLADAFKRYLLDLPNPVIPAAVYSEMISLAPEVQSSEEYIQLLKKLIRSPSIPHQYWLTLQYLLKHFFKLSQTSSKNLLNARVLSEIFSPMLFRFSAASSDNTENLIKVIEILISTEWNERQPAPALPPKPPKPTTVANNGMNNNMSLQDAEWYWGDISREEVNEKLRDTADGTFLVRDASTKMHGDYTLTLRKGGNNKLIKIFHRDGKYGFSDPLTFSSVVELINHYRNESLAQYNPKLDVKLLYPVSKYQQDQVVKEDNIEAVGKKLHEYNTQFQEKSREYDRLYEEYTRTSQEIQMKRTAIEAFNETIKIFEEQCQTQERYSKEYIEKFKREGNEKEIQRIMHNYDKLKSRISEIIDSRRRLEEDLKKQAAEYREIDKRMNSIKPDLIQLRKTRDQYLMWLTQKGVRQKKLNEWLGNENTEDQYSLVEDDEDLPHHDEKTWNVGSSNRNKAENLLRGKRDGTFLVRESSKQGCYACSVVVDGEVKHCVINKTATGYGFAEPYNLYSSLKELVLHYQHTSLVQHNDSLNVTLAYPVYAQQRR

`Cc1ccc(S(=O)(=O)N[C@]2(C)C[C@H](O)C2)cc1-c1cnc2c(N)ncnn12` [Example 191, 3-(4-aminoimidazo[2,1-f][1,2,4]triazin-7-yl)-N-((1s,3s)-3-hydroxy-1-methylcyclobutyl)-4-methylbenzenesulfonamide] showed an IC50 [1] of under 100 nM and an IC50 [2] of 500 to 2000 nM.

In the case of `Cc1ccc(S(=O)(=O)N2CCC3(CC2)COC(=O)N3)cc1-c1cnc2c(N)ncnn12` [Example 193, 8-((3-(4-Aminoimidazo[2,1-f][1,2,4]triazin-7-yl)-4-methylphenyl)sulfonyl)-3-oxa-1,8-diazaspiro[4.5]decan-2-one], the IC50 [1] is reported as under 100 nM and the IC50 [2] is reported as 500 to 2000 nM.

`Cc1ccc(S(=O)(=O)N2CC3(CCN(C)C3=O)C2)cc1-c1cnc2c(N)ncnn12` [Example 195, 2-((3-(4-Aminoimidazo[2,1-f][1,2,4]triazin-7-yl)-4-methylphenyl)sulfonyl)-6-methyl-2,6-diazaspiro[3.4]octan-5-one] gave an IC50 [1] of under 100 nM and an IC50 [2] of 100 to 500 nM.

For `Cc1ccc(S(=O)(=O)N2CCC(F)(F)C(O)C2)cc1-c1cnc2c(N)ncnn12` (centres unmarked) [Example 196, 1-((3-(4-Aminoimidazo[2,1-f][1,2,4]triazin-7-yl)-4-methylphenyl)sulfonyl)-4,4-difluoropiperidin-3-ol], the IC50 [1] was under 100 nM and the IC50 [2] was 500 to 2000 nM.

In the case of `Cc1ccc(S(=O)(=O)N2CCN3CCCC3C2)cc1-c1cnc2c(N)ncnn12` (centres unmarked) [Example 198, 7-(5-((Hexahydropyrrolo[1,2-a]pyrazin-2(1H)-yl)sulfonyl)-2-methylphenyl)imidazo[2,1-f][1,2,4]triazin-4-amine], the IC50 [1] is reported as 100 to 500 nM and the IC50 [2] is reported as 500 to 2000 nM.

Work on `Cc1ccc(S(=O)(=O)N2CCC(C)(C#N)C2)cc1-c1cnc2c(N)ncnn12` (centres unmarked) [Example 200, 1-((3-(4-Aminoimidazo[2,1-f][1,2,4]triazin-7-yl)-4-methylphenyl)sulfonyl)-3-methylpyrrolidine-3-carbonitrile] yielded an IC50 [1] of under 100 nM and an IC50 [2] of 500 to 2000 nM.

`Cc1ccc(S(=O)(=O)N2CCC(c3ccncc3)C2)cc1-c1cnc2c(N)ncnn12` (centres unmarked) [Example 201, 7-(2-Methyl-5-((3-(pyridin-4-yl)pyrrolidin-1-yl)sulfonyl)phenyl)imidazo[2,1-f][1,2,4]triazin-4-amine] gave an IC50 [1] of under 100 nM and an IC50 [2] of 500 to 2000 nM.

Compound `Cc1ccc(S(=O)(=O)N2CCC3(CCCO3)C2)cc1-c1cnc2c(N)ncnn12` (centres unmarked) [Example 202, 7-(5-((1-Oxa-7-azaspiro[4.4]nonan-7-yl)sulfonyl)-2-methylphenyl)imidazo[2,1-f][1,2,4]triazin-4-amine] has an IC50 [1] of 100 to 500 nM and an IC50 [2] of 500 to 2000 nM.

In the case of `Cc1ccc(S(=O)(=O)N2CCC(N(C)C)C2)cc1-c1cnc2c(N)ncnn12` (centres unmarked) [Example 204, 7-(5-((3-(Dimethylamino)pyrrolidin-1-yl)sulfonyl)-2-methylphenyl)imidazo[2,1-f][1,2,4]triazin-4-amine], the IC50 [1] is reported as 100 to 500 nM and the IC50 [2] is reported as 500 to 2000 nM.

For `Cc1ccc(S(=O)(=O)N2CCC3(CCC(F)(F)CC3)C2)cc1-c1cnc2c(N)ncnn12` [Example 207, 7-(5-((8,8-Difluoro-2-azaspiro[4.5]decan-2-yl)sulfonyl)-2-methylphenyl)imidazo[2,1-f][1,2,4]triazin-4-amine], the IC50 [1] was under 100 nM and the IC50 [2] was 100 to 500 nM.

Compound `Cc1ccc(S(=O)(=O)N2CCCC23CCOCC3)cc1-c1cnc2c(N)ncnn12` [Example 209, 7-(5-((8-Oxa-1-azaspiro[4.5]decan-1-yl)sulfonyl)-2-methylphenyl)imidazo[2,1-f][1,2,4]triazin-4-amine] has an IC50 [1] of under 100 nM and an IC50 [2] of 500 to 2000 nM.

`Cc1ccc(S(=O)(=O)N2CCC[C@H]2C(C)(C)O)cc1-c1cnc2c(N)ncnn12` [Example 213, (S)-2-(1-((3-(4-Aminoimidazo[2,1-f][1,2,4]triazin-7-yl)-4-methylphenyl)sulfonyl)pyrroldiin-2-yl)propan-2-ol] was tested, and the IC50 [1] was under 100 nM and the IC50 [2] was 500 to 2000 nM.

`N#Cc1ccc(S(=O)(=O)NC23CCC(C#N)(C2)C3)cc1-c1cnc2c(N)ncnn12` [Example 260, 3-(4-Aminoimidazo[2,1-f][1,2,4]triazin-7-yl)-4-cyano-N-(4-cyanobicyclo[2.1.1]hexan-1-yl)benzenesulfonamide trifluoroacetate salt] was tested, and the IC50 [1] was under 100 nM and the IC50 [2] was 500 to 2000 nM.
